# According to patent US20260183274A1, “PDK1 REGULATORY COMPOUND AND COMPOSITION CONTAINING THE SAME” (PROVIBIO CO., LTD., priority 2024, published 2026):
# How the values were obtained:
# [1] = tested on: HCT-116 colon cancer cell lines; experiment: Matrigel Invasion Assay, HCT-116; assay type: cell-based, human; conditions: 24 hours treatment, FIG. 30
# Experimental: To evaluate the metastasis inhibitory efficacy of the compounds of the present invention on HCT-116 colon cancer cell lines, an Invasion Assay using Matrigel was performed to assess the cells' invasion ability.
# First, Matrigel was thawed on ice in RPMI-1640 medium without FBS, then diluted with DMEM at a ratio of 1:20.
# The diluted Matrigel mixture was applied to the upper chamber at 100 μl per well, and 750 μl of RPMI-1640 without FBS was added to the lower chamber.
# The plates were then incubated at 37° C. for 1 hour to allow the Matrigel to solidify.
# After coating, the Matrigel mixture in the upper chamber was removed using a pipette, and the chamber was washed with RPMI without FBS.
# Human-derived colorectal cancer cell line HCT-116, obtained from the Korean Cell Bank, was cultured in RPMI-1640 medium containing 10% FBS.
# Following stabilization, the cells were harvested using Trypsin-EDTA treatment, centrifuged at 1,200 rpm for 3 minutes, the supernatant was removed, and the cells were resuspended in the same medium, the medium in the lower chamber was replaced with 750 μl of RPMI-1640 supplemented with 10% FBS, and the cells were seeded into the upper chamber at a density of 5×10^4 cells/well.
# The cells were cultured for 24 hours after attachment, and then the compounds according to the present invention (G078, G085, G086, G088, G089, PBK-2024-010, PBK-2025-010, PBK-2025-013, PBK-2025-016) and the control substance DMSO were diluted and added to the upper chamber after removing the medium.
# Additionally, the medium in the lower chamber was replaced with fresh RPMI-1640 containing FBS, and the culture was continued.
# After an additional 24 hours, the medium was removed, and 1 ml of methanol was added for 10 minutes to fix the cells.
# Subsequently, 1 ml of Hematoxylin was added and reacted for 5 minutes, followed by 1 ml of Eosin, which was reacted for 30 seconds. The sample was then washed with distilled water (DW).
# After staining was complete, any remaining cells in the upper chamber were removed. Finally, the infiltrated cells were observed under a microscope, photographed, and the degree of infiltration was analyzed.
# [2] = tested on: Human Head and Neck cancer, Fadu; experiment: Relative cell viability CCK-8, Fadu; assay type: cell-based; conditions: Fadu cells, relative to untreated cells
# Experimental: Human-derived head and neck cancer cell line Fadu and osteosarcoma cell line Saos-2 were cultured in MEM medium containing 10% FBS, 100 U/mL penicillin, and 100 μg/mL streptomycin.
# (§1) Following stabilization, the cells were harvested using Trypsin-EDTA treatment, centrifuged at 1,200 rpm for 3 minutes, the supernatant was removed, and the cells were resuspended in the same medium. They were then seeded into a 96-well plate (Costar 96-well cell culture plate, Corning) at 100 μL per well, and the conditions were adjusted as indicated in Table 5.
# (§2) The cells were cultured in a 5% CO2 incubator at 37° C. for 24 hours, and after stabilization of the cells, each plate was washed with 200 μL of PBS per well and treated with 50 μL of culture medium per well.
# (§3) After that, 10 μL of CCK-8 was added to each well, and the plate was incubated again at 37° C. in a 5% CO2 incubator for 2 hours.
# (§4) In other words, when the survival rate of untreated cells (DMSO) is set at 100%, the relative cell survival rate in each group treated with the drug at different concentrations is indicated.
# [3] = tested on: BALB/c mice with induced psoriasis; experiment: Psoriasis animal model (Aldara cream, Imiquimod); assay type: in vivo, mouse
# Experimental: To verify the therapeutic effect of the compound according to the present invention on psoriasis, a psoriasis animal model was established as follows, and the compound according to the present invention was administered to evaluate the alleviation of skin lesions and changes in immune cell patterns.
# For the establishment of the psoriasis animal model, BALB/c mice (7 weeks old, female, 20 g) were purchased from HanabioTech Co., Ltd. and acclimatized to the rearing environment for one week.
# Subsequently, the hair on the mouse back was shaved using a hair removal device for the first time, and then completely shaved using a depilatory cream (Nicrin Cream (80% thioglycolic acid, Il Dong Pharmaceutical)) for the second time. The mice were then kept for 24 hours to confirm the absence of skin damage.
# [Normal control group (Normal, Not Treatment), psoriasis-induced control group (Psoriasis, Not Treatment), psoriasis-induced vehicle control group (Psoriasis, Vehicle), experimental group (GO85, GO86, GO88, GO89, PBK-2024-010, PBK-2024-026, PBK-2025-002, PBK-2025-004, PBK-2025-016, PBK-2025-017, PBK-2025-023)]. […]
# Body weights of mice in each group were measured on days 1, 4, and 8 after the start of injection and psoriasis induction. […]
# To evaluate the therapeutic effect in a psoriasis-induced mouse model, the PASI (Psoriasis Area and Severity Index) score was measured.
# The PASI score is based on three criteria: erythema, scaling, and skin thickness, each scored from 0 (none) to 4 (severe). […]
# Observations were conducted daily at the same time, and the same observer visually assessed each criterion and recorded the scores, with the results presented in FIG. 13. […]
# All samples were measured in duplicate, and the absorbance was measured at 450 nm using a microplate reader.
# [4] = tested on: Human Melanoma cancer cell, Malme-3M; experiment: Relative cell viability CCK-8, Malme-3M; assay type: cell-based; conditions: 48 hours
# Experimental: Human-derived breast cancer cell line MCF-7, human-derived lung cancer cell line A549, human-derived colorectal cancer cell line HCT-116, human pancreatic cancer cell line AsPC-1, glioblastoma cell line A172, and melanoma cell line Malme-3M were obtained from the Korean Cell Bank. gastric cancer cell line SNU-719, and bladder cancer cell line T24 were cultured in RPMI-1640 medium containing 10% FBS.
# as §1, §2, §3, §4
# [5] = tested on: Human multiple myeloma, KMS26; experiment: Relative cell viability, KMS26; assay type: cell-based; conditions: KMS26 cells, relative to untreated cells
# Experimental: as §3, §4
structure (smiles),measurement,setting,value
"Nc1ncccc1C(=O)NCCCCCCCCCCCCN1CCNCC1 [Compound 5, 2-Amino-N-(12-(piperazin-1-yl)dodecyl)-nicotinamide]",Number of infiltrated cells (invasion),[1],reduction in the number of infiltrated cells
same,Relative cell viability (%),"[2]; 10 μM, listed as GO78, 10 µM",6.63%
same,Relative cell viability (%),"[2]; 30 μM, listed as GO78, 30 µM",4.93%
same,Relative cell viability (%),"[2]; 50 μM, listed as GO78, 50 µM",0.99%
same,viability at 1 µM,"[2]; Homo sapiens, FaDu, 1 μM",4.18%
"Nc1ncccc1C(=O)NCCCCCCCCCCCCN1CCNCC1 [Compound 14, 2-Amino-N-(12-(piperazin-1-yl)dodecyl)nicotinamide]",Efficacy in improving dermatological symptoms,[3],excellent efficacy in improving dermatological symptoms
same,viability at 1 µM,"[4]; Homo sapiens, Malme-3M, 1 μM",43.7%
same,viability at 10 µM,"[4]; Homo sapiens, Malme-3M, 10 μM",31.2%
same,viability at 30 µM,"[4]; Homo sapiens, Malme-3M, 30 μM",16.3%
same,viability at 50 µM,"[4]; Homo sapiens, Malme-3M, 50 μM",15.9%
same,Relative cell viability (%),"[2]; 1 μM, listed as GO88, 1 µM",7.05%
same,Relative cell viability (%),"[2]; 10 μM, listed as GO88, 10 µM",73.25%
same,Relative cell viability (%),"[2]; 30 μM, listed as GO88, 30 µM",57.64%
same,Relative cell viability (%),"[2]; 50 μM, listed as GO88, 50 µM",7.08%
"CC1(C)CN(CCCCCCCCCCCCC(=O)Nc2nc(N)c3[nH]cnc3n2)CCO1 [Compound 11, 12-[4-(2,2-dimethylmorpholin-4-yl)]dodecyl-N-(6-aminopurine-2-yl) carboxamide]",Efficacy in improving dermatological symptoms,[3],excellent efficacy in improving dermatological symptoms
same,Relative cell viability (%),[5]; 1 μM,31.19%
same,Number of infiltrated cells (invasion),[1],reduction in the number of infiltrated cells
same,"Relative cell viability (%), Malme-3M",[4]; 1 μM,44.06%
same,"Relative cell viability (%), Malme-3M",[4]; 10 μM,37.40%
same,"Relative cell viability (%), Malme-3M",[4]; 30 μM,36.80%
same,"Relative cell viability (%), Malme-3M",[4]; 50 μM,38.87%
same,Relative cell viability (%),[2]; 1 μM,2.08%
same,Relative cell viability (%),[2]; 10 μM,9.68%
same,Relative cell viability (%),[2]; 30 μM,8.51%
same,Relative cell viability (%),[2]; 50 μM,4.78%
"Nc1ncccc1C(=O)NCCCCCCCCCCCCF [Compound 57, 2-Amino-N-(12-fluoro-dodecyl)-nicotinamide]",viability at 10 µM,"[5]; Homo sapiens, KMS-26, 10 μM",44.4%
same,viability at 30 µM,"[5]; Homo sapiens, KMS-26, 30 μM",43.1%
"Nc1nc(NC(=O)CCCCCCCCCCCCN2CCN(CCO)CC2)nc2nc[nH]c12 [Compound 15, 12-[4-(2-hydroxyethyl)piperazin-1-yl]dodecyl-N-(6-aminopurine-2-yl) carboxamide]",Efficacy in improving dermatological symptoms,[3],excellent efficacy in improving dermatological symptoms
same,Number of infiltrated cells (invasion),[1],reduction in the number of infiltrated cells
same,viability at 1 µM,"[2]; Homo sapiens, FaDu, 1 μM",4.15%
same,viability at 10 µM,"[2]; Homo sapiens, FaDu, 10 μM",29.3%
same,viability at 30 µM,"[2]; Homo sapiens, FaDu, 30 μM",41.5%
same,viability at 50 µM,"[2]; Homo sapiens, FaDu, 50 μM",9.44%
